The record followed here is patent US20240261417A1, “SOS1 DEGRADING AGENT AND PREPARATION METHOD THEREFOR AND APPLICATION THEREOF” (SHANGHAI LEADINGTAC PHARMACEUTICAL CO. LTD., priority 2021, published 2024).

pIC50: −log10 of the molar value.

In one test the target is T1, KRAS-G12C/SOS1 (Homo sapiens, UniProt Q07889).
T1 construct: purchased Cisbio 63ADKOOOCB16PEG
T1 sequence (Q07889 1-1333): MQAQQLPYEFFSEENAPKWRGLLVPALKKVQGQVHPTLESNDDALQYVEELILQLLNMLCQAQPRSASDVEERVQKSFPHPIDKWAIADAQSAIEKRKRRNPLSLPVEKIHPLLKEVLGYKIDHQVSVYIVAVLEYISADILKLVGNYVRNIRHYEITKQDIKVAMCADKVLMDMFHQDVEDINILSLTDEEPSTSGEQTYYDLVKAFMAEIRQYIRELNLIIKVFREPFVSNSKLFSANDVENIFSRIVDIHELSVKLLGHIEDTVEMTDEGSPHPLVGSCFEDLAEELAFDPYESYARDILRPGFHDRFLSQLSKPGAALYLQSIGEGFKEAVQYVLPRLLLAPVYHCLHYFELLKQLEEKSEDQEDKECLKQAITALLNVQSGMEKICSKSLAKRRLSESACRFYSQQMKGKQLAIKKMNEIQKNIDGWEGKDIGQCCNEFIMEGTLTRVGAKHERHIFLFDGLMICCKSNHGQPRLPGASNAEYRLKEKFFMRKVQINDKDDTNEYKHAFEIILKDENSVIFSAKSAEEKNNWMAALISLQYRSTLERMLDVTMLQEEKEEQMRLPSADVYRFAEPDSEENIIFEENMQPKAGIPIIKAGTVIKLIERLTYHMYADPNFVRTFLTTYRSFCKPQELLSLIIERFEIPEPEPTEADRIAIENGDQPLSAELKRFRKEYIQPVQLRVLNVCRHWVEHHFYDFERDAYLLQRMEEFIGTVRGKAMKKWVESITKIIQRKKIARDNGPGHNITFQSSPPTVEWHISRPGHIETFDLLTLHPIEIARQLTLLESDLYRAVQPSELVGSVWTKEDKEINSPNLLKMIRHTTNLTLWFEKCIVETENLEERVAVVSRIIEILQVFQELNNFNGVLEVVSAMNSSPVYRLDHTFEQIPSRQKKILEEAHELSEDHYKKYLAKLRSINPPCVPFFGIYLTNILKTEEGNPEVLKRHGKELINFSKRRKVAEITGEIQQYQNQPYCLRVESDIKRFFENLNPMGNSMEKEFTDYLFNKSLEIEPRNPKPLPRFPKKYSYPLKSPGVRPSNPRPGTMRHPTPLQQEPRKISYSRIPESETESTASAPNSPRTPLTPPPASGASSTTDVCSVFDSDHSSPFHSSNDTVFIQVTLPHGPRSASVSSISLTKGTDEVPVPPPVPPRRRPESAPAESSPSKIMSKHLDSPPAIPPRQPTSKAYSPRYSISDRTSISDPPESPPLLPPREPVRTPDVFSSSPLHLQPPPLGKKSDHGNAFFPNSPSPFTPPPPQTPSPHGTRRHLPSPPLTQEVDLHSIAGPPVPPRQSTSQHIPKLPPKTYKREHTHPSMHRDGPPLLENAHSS
Nature of the test: KRAS-G12C/SOS1 binding assay (HTRF). To be noted: inhibition of KRAS-G12C/SOS1 binding. The essentials: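 HTRF competition assay with Tag1-SOS1 and Tag2-KRAS-G12C (10 μM GTP). Compounds at 10000 nM-0.04 nM final (0.5% DMSO), incubated 15 min at 25° C, then anti-tag Tb3+/XL665 antibodies added for 3 h on ice. The 665/620 nm ratio was compared with control and IC50 derived by nonlinear fit.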
Background: TR-FRET usually uses a lanthanide donor and a delayed reading to cut background.

The target of another test is T2, SOS1 protein (Homo sapiens, UniProt Q07889).
T2 sequence (Q07889 1-1333): T1 sequence (Q07889 1-1333)
As to the kind of experiment: SOS1 degradation assay (Western blot), NCI-H358 cells. The class given is cell-based. The arrangement: The degradation of SOS1 by the compounds was investigated on KRAS G12C mutant human non-small cell lung cancer cells NCI-H358; host or cells: NCI-H358 (human cancer cell lines). To be noted: SOS1 degradation, NCI-H358 cells, 24 h, Western blot; for DC50: read-out: NCI-H358 (G12C) DC50; for Dmax: read-out: NCI-H358 (G12C) Dmax. The essentials: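 Cells at 5×10^5 per well were treated for 24 h at 37 °C with compound at 0.03–3000 nM final. SOS1 in lysates was measured by Western blot with chemiluminescent densitometry and normalised to the control group. DC50 and Dmax came from nonlinear fits against log concentration.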
(Immunoblotting shows a protein as a band on a membrane.)

`COc1cc2nc(C)nc(N[C@H](C)c3cc(-c4c(Cl)cccc4CN(C)C)cs3)c2cc1[C@H]1CC[C@H](C(=O)N2CCN(CC3CCC4(CC3)CCN(C(=O)c3ccc(C5CCC(=O)NC5=O)cc3)CC4)CC2)CC1` (stereo partly drawn) [Example 52, 3-(4-(9-((4-((1R,4R)-4-(4-(((R)-1-(4-(2-chloro-6-((dimethylamino)methyl)phenyl)thien-2-yl)ethyl)amino)-7-methoxy-2-methylquinazolin-6-yl)cyclohexane-1-carbonyl)piperazin-1-yl)methyl)-3-azaspiro[5.5]undecane-3-carbonyl)phenyl)piperidine-2,6-dione] showed a pIC50 on KRAS-G12C/SOS1 of no less than 7.82. On SOS1 protein, the DC50 lay within 100 to 500 nM and the Dmax lay in the range of 50 to 80%.

As to `COc1ccc(C(=O)N2CCC3(CCC(CN4CCN(C(=O)[C@H]5CC[C@H](c6cc7c(N[C@H](C)c8cc(-c9c(Cl)cccc9CN(C)C)cs8)nc(C)nc7cc6OC)CC5)CC4)CC3)CC2)cc1N1CCC(=O)NC1=O` [Example 59, 1-(5-(9-((4-((1R,4R)-4-(4-(((R)-1-(4-(2-chloro-6-((dimethylamino)methyl)phenyl)thien-2-yl)ethyl)amino)-7-methoxy-2-methylquinazolin-6-yl)cyclohexane-1-carbonyl)piperazin-1-yl)methyl)-3-azaspiro[5.5]undecane-3-carbonyl)-2-methoxyphenyl)dihydropyrimidine-2,4(1H,3H)-dione], on KRAS-G12C/SOS1, the pIC50 was no less than 7.82. At SOS1 protein, the DC50 is less than 50 nM and the Dmax lay within 80 to 100%.

For the compound `COc1cc2nc(C)nc(N[C@H](C)c3cc(-c4c(Cl)cccc4CN(C)C)cs3)c2cc1[C@H]1CC[C@H](C(=O)N2CCC(OCCCC3CCN(C(=O)c4ccc(Cl)c(N5CCC(=O)NC5=O)c4)CC3)CC2)CC1` [Example 61, 1-(2-chloro-5-(4-(3-((1-((1R,4R)-4-(4-(((R)-1-(4-(2-chloro-6-((dimethylamino)methyl)phenyl)thien-2-yl)ethyl)amino)-7-methoxy-2-methylquinazolin-6-yl)cyclohexane-1-carbonyl)piperidin-4-yl)oxy)propyl)piperidine-1-carbonyl)phenyl)dihydropyrimidine-2,4(1H,3H)-dione], the pIC50 at KRAS-G12C/SOS1 is no less than 7.82. For the same compound, on SOS1 protein, the DC50 was 100 to 500 nM and the Dmax was 50 to 80%.

For the compound `[2H]C([2H])(OCC1CCN(C(=O)[C@H]2CC[C@H](c3cc4c(N[C@H](C)c5cc(N)cc(C(F)(F)F)c5)nc(C)nc4cc3OC)CC2)CC1)C1CCN(C(=O)c2ccc(Cl)c(N3CCC(=O)NC3=O)c2)CC1` [Example 75, 1-(5-(4-(((1-((1R,4R)-4-(4-(((R)-1-(3-amino-5-(trifluoromethyl)phenyl)ethyl)amino)-7-methoxy-2-methylquinazolin-6-yl)cyclohexane-1-carbonyl)piperidin-4-yl)methoxy)methyl-d2)piperidine-1-carbonyl)-2-chlorophenyl)dihydropyrimidine-2,4(1H,3H)-dione], the pIC50 at KRAS-G12C/SOS1 was no less than 7.82. Besides, at SOS1 protein, the DC50 was less than 50 nM and the Dmax is 50 to 80%.

At KRAS-G12C/SOS1, `COc1cc2nc(C)nc(N[C@H](C)c3cc(N)cc(C(F)(F)F)c3)c2cc1C1=CCC(C(=O)N2CCC(CCOCC3CCN(C(=O)c4ccc(Cl)c(N5CCC(=O)NC5=O)c4)CC3)CC2)CC1` (stereo partly drawn) [Example 64, 1-(5-(4-((2-(1-(4-(4-(((R)-1-(3-amino-5-(trifluoromethyl)phenyl)ethyl)amino)-7-methoxy-2-methylquinazolin-6-yl)cyclohex-3-ene-1-carbonyl)piperidin-4-yl)ethoxy)methyl)piperidine-1-carbonyl)-2-chlorophenyl)dihydropyrimidine-2,4(1H,3H)-dione] showed a pIC50 of no less than 7.82. Also, at SOS1 protein, the DC50 was less than 50 nM and the Dmax lay within 50 to 80%.

For the compound `[2H]C1([2H])CC(OCC2CCN(C(=O)[C@H]3CC[C@H](c4cc5c(N[C@H](C)c6cc(N)cc(C(F)(F)F)c6)nc(C)nc5cc4OC)CC3)CC2)CC([2H])([2H])N1C(=O)c1ccc(Cl)c(N2CCC(=O)NC2=O)c1` [Example 45, 1-(5-(4-((1-((1R,4R)-4-(4-(((R)-1-(3-amino-5-(trifluoromethyl)phenyl)ethyl)amino)-7-methoxy-2-methylquinazolin-6-yl)cyclohexane-1-carbonyl)piperidin-4-yl)methoxy)piperidine-1-carbonyl-2,2,6,6-d4)-2-chlorophenyl)dihydropyrimidine-2,4(1H,3H)-dione], the pIC50 at KRAS-G12C/SOS1 is no less than 7.82. In addition, at SOS1 protein, the DC50 lay within 100 to 500 nM and the Dmax was in the range of 50 to 80%.

`COc1cc2nc(C)nc(N[C@H](C)c3cc(N)cc(C(F)(F)F)c3)c2cc1[C@H]1CC[C@H](C(=O)N2CCC(CCOCC3CCN(C(=O)c4ccc(F)c(N5CCC(=O)NC5=O)c4)CC3)CC2)CC1` [Example 44, 1-(5-(4-((2-(1-((1R,4R)-4-(4-(((R)-1-(3-amino-5-(trifluoromethyl)phenyl)ethyl)amino)-7-methoxy-2-methylquinazolin-6-yl)cyclohexane-1-carbonyl)piperidin-4-yl)ethoxy)methyl)piperidine-1-carbonyl)-2-fluorophenyl)dihydropyrimidine-2,4(1H,3H)-dione] had a pIC50 on KRAS-G12C/SOS1 of no less than 7.82. The DC50 on SOS1 protein is less than 50 nM.

As a reminder, the pIC50 is the IC50 on a negative log10 scale, so that one unit is a factor of ten. A word on the DC50: it is the concentration giving 50% degradation. The Dmax is the largest share of the target that was removed.
